Tests used:
[1] = system: human tumor cell lines; experiment: NCI one-dose screening, Mean / Delta / Range of growth percent over all tested cell lines; format: cell-based; conditions: 10 μM
[2] = system: KM12; experiment: NCI one-dose screening, colon cancer KM12; format: cell-based, human; conditions: 10 μM
[3] = system: MOLT-4; experiment: NCI one-dose screening, leukemia MOLT-4; format: cell-based, human; conditions: 10 μM
[4] = system: DU145; experiment: NCI one-dose screening, prostate cancer DU145; format: cell-based, human; conditions: 10 μM
[5] = system: HCC-2998; experiment: NCI one-dose screening, colon cancer HCC-2998; format: cell-based, human; conditions: 10 μM
[6] = system: MDA-MB-468; experiment: NCI one-dose screening, breast cancer MDA-MB-468; format: cell-based, human; conditions: 10 μM
[7] = system: HOP-62; experiment: NCI one-dose screening, non-small cell lung cancer HOP-62; format: cell-based, human; conditions: 10 μM
[8] = system: SNB-19; experiment: NCI one-dose screening, CNS cancer SNB-19; format: cell-based, human; conditions: 10 μM
[9] = system: NCI-H23; experiment: NCI one-dose screening, non-small cell lung cancer NCI-H23; format: cell-based, human; conditions: 10 μM
[10] = system: HL-60, TB; experiment: NCI one-dose screening, leukemia HL-60, TB; format: cell-based, human; conditions: 10 μM
[11] = system: U251; experiment: NCI one-dose screening, CNS cancer U251; format: cell-based, human; conditions: 10 μM
[12] = system: MCF7; experiment: NCI one-dose screening, breast cancer MCF7; format: cell-based, human; conditions: 10 μM
[13] = system: 786-O; experiment: NCI one-dose screening, renal cancer 786-O; format: cell-based, human; conditions: 10 μM
[14] = system: HCT-116; experiment: NCI one-dose screening, colon cancer HCT-116; format: cell-based, human; conditions: 10 μM
[15] = system: SF-539; experiment: NCI one-dose screening, CNS cancer SF-539; format: cell-based, human; conditions: 10 μM
[16] = system: UACC-257; experiment: NCI one-dose screening, melanoma UACC-257; format: cell-based, human; conditions: 10 μM
[17] = system: A549/ATCC; experiment: NCI one-dose screening, non-small cell lung cancer A549/ATCC; format: cell-based, human; conditions: 10 μM
[18] = system: OVCAR-3; experiment: NCI one-dose screening, ovarian cancer OVCAR-3; format: cell-based, human; conditions: 10 μM
[19] = system: CCRF-CEM; experiment: NCI screening platform one-dose single concentration screening, leukemia CCRF-CEM; format: cell-based, human; conditions: 10 μM
[20] = system: COLO 205; experiment: NCI one-dose screening, colon cancer COLO 205; format: cell-based, human; conditions: 10 μM
[21] = system: OVCAR-5; experiment: NCI one-dose screening, ovarian cancer OVCAR-5; format: cell-based, human; conditions: 10 μM
[22] = system: SF-295; experiment: NCI one-dose screening, CNS cancer SF-295; format: cell-based, human; conditions: 10 μM
[23] = system: SK-MEL-5; experiment: NCI one-dose screening, melanoma SK-MEL-5; format: cell-based, human; conditions: 10 μM
[24] = system: SK-MEL-2; experiment: NCI one-dose screening, melanoma SK-MEL-2; format: cell-based, human; conditions: 10 μM
[25] = system: MDA-MB-231/ATCC; experiment: NCI one-dose screening, breast cancer MDA-MB-231/ATCC; format: cell-based, human; conditions: 10 μM
[26] = system: CAKI-1; experiment: NCI one-dose screening, renal cancer CAKI-1; format: cell-based, human; conditions: 10 μM
[27] = system: UACC-62; experiment: NCI one-dose screening, melanoma UACC-62; format: cell-based, human; conditions: 10 μM
[28] = system: RXF, 393; experiment: NCI one-dose screening, renal cancer RXF, 393; format: cell-based, human; conditions: 10 μM
[29] = system: SF-268; experiment: NCI one-dose screening, CNS cancer SF-268; format: cell-based, human; conditions: 10 μM
[30] = system: SNB-75; experiment: NCI one-dose screening, CNS cancer SNB-75; format: cell-based, human; conditions: 10 μM
[31] = system: OVCAR-8; experiment: NCI one-dose screening, ovarian cancer OVCAR-8; format: cell-based, human; conditions: 10 μM
[32] = system: OVCAR-4; experiment: NCI one-dose screening, ovarian cancer OVCAR-4; format: cell-based, human; conditions: 10 μM
[33] = system: SK-OV-3; experiment: NCI one-dose screening, ovarian cancer SK-OV-3; format: cell-based, human; conditions: 10 μM
[34] = system: SK-MEL-28; experiment: NCI one-dose screening, melanoma SK-MEL-28; format: cell-based, human; conditions: 10 μM
[35] = system: M14; experiment: NCI one-dose screening, melanoma M14; format: cell-based, human; conditions: 10 μM
[36] = NCI one-dose screening, renal cancer A489; format: cell-based, human; conditions: 10 μM
[37] = system: IGROV1; experiment: NCI one-dose screening, ovarian cancer IGROV1; format: cell-based, human; conditions: 10 μM
[38] = system: NCI-H322M; experiment: NCI one-dose screening, non-small cell lung cancer NCI-H322M; format: cell-based, human; conditions: 10 μM; Non-small cell lung cancer
[39] = system: NCI-H522; experiment: NCI one-dose screening, non-small cell lung cancer NCI-H522; format: cell-based, human; conditions: 10 μM
[40] = system: SR; experiment: NCI one-dose screening, leukemia SR; format: cell-based, human; conditions: 10 μM
[41] = system: UO-31; experiment: NCI one-dose screening, renal cancer UO-31; format: cell-based, human; conditions: 10 μM
[42] = system: HCT-15; experiment: NCI one-dose screening, colon cancer HCT-15; format: cell-based, human; conditions: 10 μM
[43] = system: MALME-3M; experiment: NCI one-dose screening, melanoma MALME-3M; format: cell-based, human; conditions: 10 μM
[44] = system: ACHN; experiment: NCI one-dose screening, renal cancer ACHN; format: cell-based, human; conditions: 10 μM
[45] = system: SN12C; experiment: NCI one-dose screening, renal cancer SN12C; format: cell-based, human; conditions: 10 μM
[46] = system: HS 578-T; experiment: NCI one-dose screening, breast cancer HS 578-T; format: cell-based, human; conditions: 10 μM; Breast cancer
[47] = system: PC-3 prostate cancer cell line; experiment: SRB assay cell viability, PC-3 prostate cancer cell line; format: cell-based, human; conditions: PC-3 prostate cancer cell line, Table II prints no unit, μM printed, read-out: SRB assay: 50% inhibition of cancer cell proliferation of sample concentration (IC50) of PC-3 prostate cancer cell line
[48] = system: LOX IMVI; experiment: NCI one-dose screening, melanoma LOX IMVI; format: cell-based, human; conditions: 10 μM
[49] = system: HT29; experiment: NCI one-dose screening, colon cancer HT29; format: cell-based, human; conditions: 10 μM
[50] = system: K562cell line; experiment: NCI one-dose screening, leukemia K562; format: cell-based, human; conditions: 10 μM
[51] = system: NCI-H460; experiment: NCI one-dose screening, non-small cell lung cancer NCI-H460; format: cell-based, human; conditions: 10 μM
[52] = system: NCl/ADR-RES; experiment: NCI one-dose screening, breast cancer NCl/ADR-RES; format: cell-based, human; conditions: 10 μM; listed under Ovarian cancer
[53] = system: PRMI-8226 cell line; experiment: NCI one-dose screening, leukemia PRMI-8226; format: cell-based, human; conditions: 10 μM
[54] = system: T-47D; experiment: NCI one-dose screening, breast cancer T-47D; format: cell-based, human; conditions: 10 μM
[55] = system: MDA, -MB-435; experiment: NCI one-dose screening, breast cancer MDA, -MB-435; format: cell-based, human; conditions: 10 μM; listed under Melanoma
[56] = system: TK-10; experiment: NCI one-dose screening, renal cancer TK-10; format: cell-based, human; conditions: 10 μM
[57] = system: HOP-92; experiment: NCI one-dose screening, non-small cell lung cancer HOP-92; format: cell-based, human; conditions: 10 μM

With `O=C1c2ccccc2C(=O)c2c1ccc1nsnc21` [C1, Anthraquinone[2,1-c][1,2,5]thiadiazol-6,11-dione] the “Growth Percent Delta” value ([1]; delta over all cell lines) was 102.68%, the “Growth Percent Mean” value ([1]; mean over all cell lines) was 2.68% and the “Growth Percent Range” value ([1]; range over all cell lines) was 230.09%. For the same molecule, the “Growth Percent KM12” value [2] was 98.60%, the “Growth Percent MOLT-4” value [3] was −40.09% and the “Growth Percent DU145” value [4] was 40.76%. For the same molecule, the “Growth Percent HCC-2998” value [5] was −0.74%, the “Growth Percent MDA-MB-468” value [6] was −73.17% and the “Growth Percent HOP-62” value [7] was 103.18%. For the same molecule, the “Growth Percent SNB-19” value [8] was 78.98%, the “Growth Percent NCI-H23” value [9] was 97.80% and the “Growth Percent HL-60(TB)” value [10] was −21.77%. For the same molecule, the “Growth Percent U251” value [11] was −89.26%, the “Growth Percent MCF7” value [12] was −50.74% and the “Growth Percent 786-0” value [13] was −25.98%. The “Growth Percent HCT-116” value [14] was −50.00%, the “Growth Percent SF-539” value [15] was −47.11% and the “Growth Percent UACC-257” value [16] was −83.07%. The “Growth Percent A549/ATCC” value [17] was 104.19%, the “Growth Percent OVCAR-3” value [18] was −15.47% and the “Growth Percent CCRF-CEM” value [19] was −30.81%. For the same molecule, the “Growth Percent COLO 205” value [20] was 111.54%, the “Growth Percent OVCAR-5” value [21] was −20.07% and the “Growth Percent SF-295” value [22] was 126.17%. For the same molecule, the “Growth Percent SK-MEL-5” value [23] was 8.52%, the “Growth Percent SK-MEL-2” value [24] was −73.16% and the “Growth Percent MDA-MB-231/ATCC” value [25] was −17.33%. The “Growth Percent CAKI-1” value [26] was 1.97%, the “Growth Percent UACC-62” value [27] was −82.32% and the “Growth Percent RXF 393” value [28] was 20.11%. The “Growth Percent SF-268” value [29] was 16.29%, the “Growth Percent SNB-75” value [30] was 79.03% and the “Growth Percent OVCAR-8” value [31] was −10.07%. For the same molecule, the “Growth Percent OVCAR-4” value [32] was −94.43%, the “Growth Percent SK-OV-3” value [33] was 100.70% and the “Growth Percent SK-MEL-28” value [34] was 15.47%. For the same molecule, the “Growth Percent M14” value [35] was 74.54%, the “Growth Percent A498” value [36] was 130.09% and the “Growth Percent IGROV1” value [37] was −88.34%. For the same molecule, the “Growth Percent NCI-H322M” value [38] was 16.07%, the “Growth Percent NCI-H522” value [39] was 77.41% and the “Growth Percent SR” value [40] was 4.96%. The “Growth Percent UO-31” value [41] was −79.30%, the “Growth Percent HCT-15” value [42] was 1.48% and the “Growth Percent MALME-3M” value [43] was −71.64%. The “Growth Percent ACHN” value [44] was −94.31%, the “Growth Percent SN12C” value [45] was −73.27% and the “Growth Percent HS 578T” value [46] was 7.40%. The IC50 [47] was 2.5 µM, the “Growth Percent LOX IMVI” value [48] was −50.63% and the “Growth Percent HT29” value [49] was 116.95%. The “Growth Percent K562” value [50] was 49.61%, the “Growth Percent NCI-H460” value [51] was 125.82% and the “Growth Percent NCI/ADR-RES” value [52] was −2.53%. For the same molecule, the “Growth Percent RPMI-8226” value [53] was −27.97%, the “Growth Percent T-47D” value [54] was −45.52% and the “Growth Percent MDA-MB-435” value [55] was −87.88%. The “Growth Percent TK-10” value [56] was 96.99% and the “Growth Percent HOP-92” value [57] was −100.00%.

Source: patent US8877748B2, “Heterocyclic fused anthraquinone derivatives, manufacturing method and pharmaceutical composition using thereof” (National Defense Medical Center, priority 2012, dated 2014)
